Assays:
Type in all cases: in vivo
Barnyard grass [1] = assay: Herbicidal activity test for indoor pre-emergence soil treatment; design: key: level 1-9; higher = more weed remaining vs blank control; details: 150 g a.i./ha, visual inspection 21 days after treatment
Method in brief: (§1)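 Pre-emergence test following NY/T 1155.3-2006: weed seeds were sown in moistened neutral sandy loam (≤2% organic matter) and covered with 0.5–2.0 cm of soil. After 24 h, the soil was sprayed with a 10% EC diluted in water at 150 g(a.i.)/ha. Damage was scored visually on a 1–9 scale at 21 days.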

Piemarker [2] = assay: as above; design: key: level 1-9; higher = more weed remaining vs blank control; details: 150 g a.i./ha, visual inspection 21 days after treatment
Method in brief: as §1

green bristlegrass [3] = assay: as above; design: key: level 1-9; higher = more weed remaining vs blank control; details: 150 g a.i./ha, visual inspection 21 days after treatment
Method in brief: as §1

Amaranthus retroflexus [4] = assay: as above; design: key: 1-9 levels; higher = more weed remaining vs blank control; details: 150 g a.i./ha, visual inspection 21 days after treatment
Method in brief: as §1

Digitaria sanguinalis [5] = assay: as above; design: key: 1-9 levels; higher = more weed remaining vs blank control; details: 150 g a.i./ha, visual inspection 21 days after treatment
Method in brief: as §1

Humulus scandens [6] = assay: as above; details: 150 g a.i./ha, visual inspection 21 days after treatment
Method in brief: as §1

Amaranthus retroflexus [7] = assay: Herbicidal activity test for indoor post-emergence spraying on stems and leaves; design: key: grade level by weed remaining vs blank control, e.g. 5 = 10.1-15%; details: 150 g a.i./ha, visual inspection 21 days after treatment
Method in brief: (§2)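 Post-emergence stem and leaf spray in an indoor test following NY/T 1155.4-2006, with weeds sown and grown in a greenhouse. Effect scored visually 21 days after treatment as graded levels, each level set by the percentage of weed remaining relative to the blank control area.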

Barnyard grass [8] = assay: as above; design: key: grade level by weed remaining vs blank control, e.g. 5 = 10.1-15%; details: 150 g a.i./ha, visual inspection 21 days after treatment
Method in brief: as §2

Digitaria sanguinalis [9] = assay: as above; design: key: grade level by weed remaining vs blank control, e.g. 5 = 10.1-15%; details: 150 g a.i./ha, visual inspection 21 days after treatment
Method in brief: as §2

Humulus scandens [10] = assay: as above; design: key: grade level by weed remaining vs blank control, e.g. 5 = 10.1-15%; details: 150 g a.i./ha, visual inspection 21 days after treatment
Method in brief: as §2

Piemarker [11] = assay: as above; design: key: grade level by weed remaining vs blank control, e.g. 5 = 10.1-15%; details: 150 g a.i./ha, visual inspection 21 days after treatment
Method in brief: as §2

green bristlegrass [12] = assay: as above; design: key: grade level by weed remaining vs blank control, e.g. 5 = 10.1-15%; details: 150 g a.i./ha, visual inspection 21 days after treatment
Method in brief: as §2

Broadleaf weed = assay: Post-emergence herbicidal activity test in a paddy field; design: key: level scale; higher level = more weed left vs blank control; details: 150 g a.i./ha (penoxsulam control 250 g(a.i.)/h)
Method in brief: (§3)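 Efficacy was visually estimated 15 and 30 days after spraying, grading weed coverage relative to an untreated neighbouring plot (level 2 = 0 to 2.5%, level 9 = 67.6 to 100%). Treatments were 150 g(a.i.)/ha from 10% emulsifiable concentrates applied at the 4-5 leaf rice stage, four repeats of 50 m^2 each.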

Cyperaceae = assay: as above; design: key: level scale; higher level = more weed left vs blank control; details: 150 g a.i./ha (penoxsulam control 250 g(a.i.)/h)
Method in brief: as §3

Gramineae = assay: as above; design: key: level scale; higher level = more weed left vs blank control; details: 150 g a.i./ha (penoxsulam control 250 g(a.i.)/h)
Method in brief: as §3

Acalypha australis = assay: Field test for weed control in a corn field; details: 150 g a.i./ha, after treatment
Method in brief: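 Post-emergence field trial in a corn field following GB/T 17980.42-2000. Test compounds were formulated as 10% emulsifiable concentrates, diluted in water, and sprayed at 150 g(a.i.)/ha when corn had 2 to 5 leaves, with 4 replicates on 20 m^2 plots. Mesotrione 25% oil dispersion served as the control agent. Weed control was scored on a 1-9 scale.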

Amaranthus retroflexus [13] = assay: Field test for weed control in a corn field; details: 150 g a.i./ha, 30 days after treatment
Method in brief: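 Field efficacy trial in a corn field following GB/T 17980.42-2000. Test compounds were formulated as 10% emulsifiable concentrates, diluted in water and sprayed post-emergence when corn had 2 to 5 leaves. Each treatment covered 20 m^2 with 4 replicates. A 25% mesotrione oil dispersion served as control. Damage to Amaranthus retroflexus was rated on a 1-9 scale against untreated blank plots.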

Barnyard grass [14] = assay: Field test for weed control in a corn field; details: 150 g a.i./ha, 30 days after treatment
Method in brief: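 Corn-field efficacy trial following GB/T 17980.42-2000. Test compounds were formulated as 10% emulsifiable concentrates, diluted in water and sprayed post-emergence at 150 g(a.i.)/ha when corn had 2 to 5 leaves. Each treatment was replicated 4 times on 20 m^2 plots. Barnyard grass control was rated on a 1-9 damage scale.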

Chenopodium album = assay: Field test for weed control in a corn field; details: 150 g a.i./ha, after treatment
Method in brief: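 A corn-field efficacy trial following GB/T 17980.42-2000 tested post-emergence control of Chenopodium album. Test compounds formulated as 10% emulsifiable concentrates were diluted in water and sprayed at 150 g(a.i.)/ha when the corn had 2 leaves to 5 leaves, on 20 m^2 plots with 4 replicates. Herbicidal activity was rated on a 1-9 scale by damage symptoms and severity.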

Convolvulus arvensis = assay: Field test for weed control in a corn field; details: 150 g a.i./ha, after treatment
Method in brief: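 Field trial of weed control against Convolvulus arvensis in corn, run following GB/T 17980.42-2000. Test agents were formulated as 10% emulsifiable concentrates and sprayed in water at 150 g(a.i.)/ha when corn plants had 2 to 5 leaves. Each treatment was replicated 4 times on 20 m^2 plots, and 25% mesotrione oil dispersion served as the control agent.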

Digitaria sanguinalis [15] = assay: Field test for weed control in a corn field; details: 150 g a.i./ha, after treatment
Method in brief: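 Field trial in a corn field following GB/T 17980.42-2000. Test compounds were formulated as 10% emulsifiable concentrates, diluted in water and sprayed post-emergence at 150 g(a.i.)/ha when corn had 2 to 5 leaves, with 4 replicates on 20 m^2 plots. Control of Digitaria sanguinalis was scored on a 1-9 scale based on weed damage relative to the untreated blank area.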

Portulaca oleracea = assay: Field test for weed control in a corn field; details: 150 g a.i./ha, after treatment
Method in brief: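 Field efficacy trial in corn following GB/T 17980.42-2000. Test compounds were prepared as 10% emulsifiable concentrates, diluted in water, and sprayed at 150 g(a.i.)/ha when corn had 2 to 5 leaves after sowing. Plots were 20 m^2 with 4 replicates per treatment. Herbicidal activity was scored on a 1-9 scale from weed damage symptoms and severity.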

Solanum nigrum = assay: Field test for weed control in a corn field; details: 150 g a.i./ha, 30 days after treatment
Method in brief: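 Post-emergence weed control was tested in a corn field following GB/T 17980.42-2000. Compounds were made into 10% emulsifiable concentrates, diluted in water and sprayed at 150 g(a.i.)/ha when corn had 2 to 5 leaves after sowing, in 20 m^2 plots with 4 replicates. Effects on Solanum nigrum were graded on a 1-9 scale relative to the blank control area.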

goosegrass = assay: Field test for weed control in a corn field; details: 150 g a.i./ha, after treatment
Method in brief: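 Weed control efficacy against goosegrass was tested in a corn field following GB/T 17980.42-2000. Compounds formulated as 10% emulsifiable concentrates were diluted in water and sprayed post-emergence at 150 g(a.i.)/ha when corn had 2 to 5 leaves, with 4 replicates of 20 m^2 plots. Herbicidal activity was rated on a 1-9 scale by damage symptoms and severity.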

green bristlegrass [16] = assay: Field test for weed control in a corn field; details: 150 g a.i./ha, after treatment
Method in brief: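 Post-emergence weed control was tested in a corn field following GB/T 17980.42-2000. When the corn had 2 leaves to 5 leaves after sowing, 10% emulsifiable concentrates diluted in water were sprayed at 150 g(a.i.)/ha on 20 m^2 plots, four replicates per treatment. Effects on green bristlegrass were scored on a 1-9 damage scale relative to the blank control area.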

nutgrass flatsedge = assay: Field test for weed control in a corn field; details: 150 g a.i./ha, after treatment
Method in brief: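 A corn field efficacy trial following GB/T 17980.42-2000 assessed post-emergence control of nutgrass flatsedge. Test compounds were formulated as 10% emulsifiable concentrates, diluted in water, and sprayed at 150 g(a.i.)/ha when the corn had 2 to 5 leaves. Each treatment had 4 replicates on 20 m^2 plots. Herbicidal activity was graded on a 1-9 scale by damage symptoms and severity.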

Row | SMILES | Herbicidal Activity Barnyard grass (Barnyard grass [1]) | Herbicidal Activity Piemarker (Piemarker [2]) | Herbicidal Activity Green bristlegrass (green bristlegrass [3]) | Herbicidal Activity Amaranthus retroflexus (Amaranthus retroflexus [4]) | Herbicidal Activity Digitaria sanguinalis (Digitaria sanguinalis [5]) | Herbicidal Activity Humulus scandens (Humulus scandens [6]) | Herbicidal Activity Amaranthus retroflexus (Amaranthus retroflexus [7]) | Herbicidal Activity Barnyard grass (Barnyard grass [8]) | Herbicidal Activity Digitaria sanguinalis (Digitaria sanguinalis [9]) | Herbicidal Activity Humulus scandens (Humulus scandens [10]) | Herbicidal Activity Piemarker (Piemarker [11]) | Herbicidal Activity Green bristlegrass (green bristlegrass [12]) | Herbicidal activity 15 days after treatment Broadleaf weed (Broadleaf weed) | Herbicidal activity 30 days after treatment Broadleaf weed (Broadleaf weed) | Herbicidal activity 15 days after treatment Cyperaceae (Cyperaceae) | Herbicidal activity 30 days after treatment Cyperaceae (Cyperaceae) | Herbicidal activity 15 days after treatment Gramineae (Gramineae) | Herbicidal activity 30 days after treatment Gramineae (Gramineae) | Post-emergence weed control effect, Acalypha australis (Acalypha australis) | Post-emergence weed control effect, Amaranthus retroflexus (Amaranthus retroflexus [13]) | other results
1 | COc1cccc(CNC(=O)c2cccnc2OC)c1 [Compound A87] | 2 (equivalent to 0 to 2.5% of the weed in the blank control area) | 2 (equivalent to 0 to 2.5% of the weed in the blank control area) | 1 | 2 (equivalent to 0 to 2.5% of the weed in the blank control area) | 2 (equivalent to 0 to 2.5% of the weed in the blank control area) | 3 (equivalent to 2.6 to 5% of the weed in the blank control area) | 1 | 2 (equivalent to 0 to 2.5% of the weed in the blank control area) | 1 | 1 | 1 | 1 | 1 | 1 | 1 | 1 | 2 (equivalent to 0 to 2.5% of the weed in the blank control area) | 1 | 2 (equivalent to 0 to 2.5% of the weed in the blank control area) | 1 | Post-emergence weed control effect, Barnyard grass (Barnyard grass [14]): 1; Post-emergence weed control effect, Chenopodium album (Chenopodium album): 1; Post-emergence weed control effect, Convolvulus arvensis (Convolvulus arvensis): 1; Post-emergence weed control effect, Digitaria sanguinalis (Digitaria sanguinalis [15]): 2 (equivalent to 0 to 2.5% of the weed in the blank control area); Post-emergence weed control effect, Portulaca oleracea (Portulaca oleracea): 1; Post-emergence weed control effect, Solanum nigrum (Solanum nigrum): 2 (equivalent to 0 to 2.5% of the weed in the blank control area); Post-emergence weed control effect, Goose grass (goosegrass): 2 (equivalent to 0 to 2.5% of the weed in the blank control area); Post-emergence weed control effect, Green bristlegrass (green bristlegrass [16]): 1; Post-emergence weed control effect, Nutgrass flatsedge (nutgrass flatsedge): 2 (equivalent to 0 to 2.5% of the weed in the blank control area)
2 | COc1ccc(OC)c(C(=O)NCc2cccc(C)c2)c1 [Compound A35] | 1 | 1 | 1 | 1 | 2 (equivalent to 0 to 2.5% of the weed in the blank control area) | 2 (equivalent to 0 to 2.5% of the weed in the blank control area) | 1 | 1 | 1 | 1 | 1 | 1 | 1 | 2 (equivalent to 0 to 2.5% of the weed in the blank control area) | 1 | 2 (equivalent to 0 to 2.5% of the weed in the blank control area) | 2 (equivalent to 0 to 2.5% of the weed in the blank control area) | 1 | 2 (equivalent to 0 to 2.5% of the weed in the blank control area) | 1 | Post-emergence weed control effect, Barnyard grass (Barnyard grass [14]): 1; Post-emergence weed control effect, Chenopodium album (Chenopodium album): 1; Post-emergence weed control effect, Convolvulus arvensis (Convolvulus arvensis): 2 (equivalent to 0 to 2.5% of the weed in the blank control area); Post-emergence weed control effect, Digitaria sanguinalis (Digitaria sanguinalis [15]): 2 (equivalent to 0 to 2.5% of the weed in the blank control area); Post-emergence weed control effect, Portulaca oleracea (Portulaca oleracea): 1; Post-emergence weed control effect, Solanum nigrum (Solanum nigrum): 2 (equivalent to 0 to 2.5% of the weed in the blank control area); Post-emergence weed control effect, Goose grass (goosegrass): 2 (equivalent to 0 to 2.5% of the weed in the blank control area); Post-emergence weed control effect, Green bristlegrass (green bristlegrass [16]): 2 (equivalent to 0 to 2.5% of the weed in the blank control area); Post-emergence weed control effect, Nutgrass flatsedge (nutgrass flatsedge): 2 (equivalent to 0 to 2.5% of the weed in the blank control area)

Reference: patent US20220330549A1, “USE OF N-BENZYLBENZAMIDE-BASED COMPOUND AS HERBICIDE” (Northwest A&F University, priority 2020, published 2022)
